Test results as given in patent publication US9050301B2, “Pharmaceutical composition for treatment of corneal endothelial wounds containing angiogenin” (Chung-Ang University Industry-Academy Cooperation Foundation, priority 2013, dated 2015).

Assays:
Assay type in all cases: cell-based, human
Details in all cases: angiogenin 5 μg/ml
Erk1/2 = experiment: Western blot of angiogenin lower pathway, Erk1/2
Procedure: (§1) The culture medium containing 5 μg/ml of angiogenin was treated with the cultured human corneal endothelial cells for 5 minutes, 10 minutes, 30 minutes, 1 hour, and 3 hours. Afterwards, according to the treatment times, expression aspects of Akt, eNOS, and Erk1/2 genes targeting the lower pathway of angiogenin were analyzed. First, a PRO-PREP™ protein extracting solution (Intron Biotechnology, Seongnam, Korea) was used to separate the total proteins from the corneal endothelial cells. The total proteins (30 μg/sample) were heat-treated at a temperature of about 100° C. for 5 minutes, and then, 10% sodiumdodecyl sulfate polyacrylamide (SDS-PAGE) gel was used to perform electrophoresis. The proteins separated according to molecular weights thereof were transferred to a polyvinylidene fluoride (PVDF) membrane, followed by being blocked by 5% BSA dissolved in 1× tris-buffered saline (TBS) at room temperature for 1 hour. […] The ECL western blotting detection reagent (Amersham Bioscience, Piscataway, USA) was used in terms of luminescence, and then, images were detected by using the same reagent for ChemiDoc™ XRS system (Bio-Rad, Hercules, USA).

Akt = experiment: Western blot of angiogenin lower pathway, Akt
Procedure: as §1

eNOS = experiment: Western blot of angiogenin lower pathway, eNOS
Procedure: as §1

**Q.** Which results are given for “Angiogenin: 14.4-kDa single chain protein of 123 amino acids, secreted protein capable of inducing angiogenesis”?
**A.** Time of maximal p-Erk1/2 expression after angiogenin treatment (Erk1/2): 30 min; Relative expression of phosphate (p-form/t-form) of Erk1/2 compared with the control group (Erk1/2; 5 minutes to 3 hours): increased extent of relative expression of phosphate (p-form/t-form); Time of maximal p-Akt expression after angiogenin treatment (Akt): 10 min; Relative expression of phosphate (p-form/t-form) of Akt compared with the control group (Akt; 5 minutes to 3 hours): increased extent of relative expression of phosphate (p-form/t-form); Time of maximal p-eNOS expression after angiogenin treatment (eNOS): 3 h; Relative expression of phosphate (p-form/t-form) of eNOS compared with the control group (eNOS; 5 minutes to 3 hours): increased extent of relative expression of phosphate (p-form/t-form)
